Experimental data: ChEMBL document CHEMBL1909046, “DrugMatrix in vitro pharmacology data”

Legend:
Glycine receptor = Glycine receptor (Rattus norvegicus, UniProt P22771+P24524+P07727+P20781); assay type: cell membranes, Wistar, Spinal cord, Membrane; also: in other assays of this panel Not Active means under 50% inhibition at 10 µM
[1] = molecular target: Kappa-type opioid receptor (Homo sapiens, UniProt P41145); assay: DRUGMATRIX: Opiate kappa (OP2, KOP) radioligand binding (ligand: [3H] Diprenorphine); assay type: cell membranes, HEK293, Membrane; conditions: Not Active = under 50% inhibition at 10 µM
Chain of Kappa-type opioid receptor (P41145 whole entry): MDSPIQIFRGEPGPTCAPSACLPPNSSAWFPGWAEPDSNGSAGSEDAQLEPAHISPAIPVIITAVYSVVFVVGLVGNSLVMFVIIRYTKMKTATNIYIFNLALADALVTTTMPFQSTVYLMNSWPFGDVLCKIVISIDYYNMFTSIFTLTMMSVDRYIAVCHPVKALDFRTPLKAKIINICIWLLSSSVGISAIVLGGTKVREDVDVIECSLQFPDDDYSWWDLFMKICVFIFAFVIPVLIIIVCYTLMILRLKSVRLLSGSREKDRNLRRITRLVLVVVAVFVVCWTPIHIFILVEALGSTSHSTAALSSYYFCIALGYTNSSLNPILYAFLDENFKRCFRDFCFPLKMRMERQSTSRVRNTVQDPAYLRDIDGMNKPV

Caspase-1 = molecular target: T1, Caspase-1 (Homo sapiens, UniProt P29466); parameters: species or system Escherichia coli;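 also: Caspase-1 enzyme inhibition assay with a peptide substrate; in other assays of this panel Not Active means under 50% inhibition at 10 µM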
T1 sequence (P29466 whole entry): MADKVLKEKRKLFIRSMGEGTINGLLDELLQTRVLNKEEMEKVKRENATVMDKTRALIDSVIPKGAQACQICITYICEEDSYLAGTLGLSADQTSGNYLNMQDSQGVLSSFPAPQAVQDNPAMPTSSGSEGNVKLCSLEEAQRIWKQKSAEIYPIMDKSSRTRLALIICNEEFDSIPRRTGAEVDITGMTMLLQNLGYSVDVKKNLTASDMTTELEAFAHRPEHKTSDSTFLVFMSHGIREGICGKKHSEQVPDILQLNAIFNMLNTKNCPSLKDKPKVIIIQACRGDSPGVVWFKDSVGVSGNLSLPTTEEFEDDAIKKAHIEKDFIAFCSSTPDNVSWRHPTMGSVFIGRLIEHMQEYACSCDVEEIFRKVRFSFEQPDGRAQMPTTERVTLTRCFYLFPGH

[2] = molecular target: T2, Receptor-type tyrosine-protein phosphatase C (Homo sapiens, UniProt P08575); parameters: species or system Escherichia coli;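 also: inhibition of CD45 enzyme activity measured using DiFMUP as substrate; in other assays of this panel Not Active means under 50% inhibition at 10 µM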
T2 sequence (P08575 whole entry): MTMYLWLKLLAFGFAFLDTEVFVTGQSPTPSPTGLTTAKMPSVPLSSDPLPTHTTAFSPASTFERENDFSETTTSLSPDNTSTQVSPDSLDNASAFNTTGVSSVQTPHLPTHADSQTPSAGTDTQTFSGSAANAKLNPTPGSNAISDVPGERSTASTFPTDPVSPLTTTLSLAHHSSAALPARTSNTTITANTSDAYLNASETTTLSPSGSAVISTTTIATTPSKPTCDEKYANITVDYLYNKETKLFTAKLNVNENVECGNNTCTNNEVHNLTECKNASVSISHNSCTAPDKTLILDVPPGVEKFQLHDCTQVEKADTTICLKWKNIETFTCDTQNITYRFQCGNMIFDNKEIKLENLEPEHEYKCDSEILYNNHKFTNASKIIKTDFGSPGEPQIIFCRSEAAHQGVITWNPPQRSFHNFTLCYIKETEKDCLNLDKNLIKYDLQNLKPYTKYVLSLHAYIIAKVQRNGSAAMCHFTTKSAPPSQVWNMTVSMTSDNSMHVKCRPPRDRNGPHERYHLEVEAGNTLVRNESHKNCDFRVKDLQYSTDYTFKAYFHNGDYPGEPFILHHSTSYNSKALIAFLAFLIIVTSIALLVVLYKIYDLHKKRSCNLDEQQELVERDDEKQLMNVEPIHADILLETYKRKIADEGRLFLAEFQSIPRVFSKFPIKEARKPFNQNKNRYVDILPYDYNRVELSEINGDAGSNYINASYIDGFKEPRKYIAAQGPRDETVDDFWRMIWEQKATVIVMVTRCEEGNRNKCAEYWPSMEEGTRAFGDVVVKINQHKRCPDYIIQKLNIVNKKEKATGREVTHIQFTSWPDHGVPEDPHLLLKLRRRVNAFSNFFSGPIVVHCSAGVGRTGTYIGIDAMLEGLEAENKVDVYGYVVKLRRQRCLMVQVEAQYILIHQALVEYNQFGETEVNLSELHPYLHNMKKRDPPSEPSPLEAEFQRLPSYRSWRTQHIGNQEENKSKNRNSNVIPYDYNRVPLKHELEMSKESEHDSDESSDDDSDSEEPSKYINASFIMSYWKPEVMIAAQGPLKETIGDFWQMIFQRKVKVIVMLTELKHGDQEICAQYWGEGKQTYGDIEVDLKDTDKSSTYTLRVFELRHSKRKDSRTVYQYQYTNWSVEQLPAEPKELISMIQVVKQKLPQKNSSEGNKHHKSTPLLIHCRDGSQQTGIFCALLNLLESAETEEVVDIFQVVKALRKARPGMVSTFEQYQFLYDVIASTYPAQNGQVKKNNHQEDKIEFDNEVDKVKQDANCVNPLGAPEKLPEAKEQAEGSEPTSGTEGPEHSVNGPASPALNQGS

Adenosine receptor A2a = Adenosine receptor A2a (Homo sapiens, UniProt P29274); assay: DRUGMATRIX: Adenosine A2A radioligand binding (ligand: […]); assay type: cell membranes, HEK293, Membrane; conditions: Not Active = under 50% inhibition at 10 µM
Chain of Adenosine receptor A2a (P29274 whole entry): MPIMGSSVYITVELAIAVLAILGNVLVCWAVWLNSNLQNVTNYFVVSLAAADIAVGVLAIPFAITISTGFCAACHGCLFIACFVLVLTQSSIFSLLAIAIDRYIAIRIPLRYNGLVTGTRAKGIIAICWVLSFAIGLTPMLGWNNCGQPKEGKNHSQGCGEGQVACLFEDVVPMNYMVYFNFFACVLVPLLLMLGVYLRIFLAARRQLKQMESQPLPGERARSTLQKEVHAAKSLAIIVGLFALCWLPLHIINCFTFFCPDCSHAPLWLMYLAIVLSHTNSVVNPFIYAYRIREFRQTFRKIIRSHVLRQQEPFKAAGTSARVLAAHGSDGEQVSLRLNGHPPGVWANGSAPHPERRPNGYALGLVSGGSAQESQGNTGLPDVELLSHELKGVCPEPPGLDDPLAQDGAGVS

Row | SMILES | IC50 (Glycine receptor) | IC50 ([1]; hek293) | IC50 (Caspase-1) | IC50 [2] | IC50 (Adenosine receptor A2a; hek293) | Ki [1] [µM] | IC50 ([1]; read-out: IC50) [µM] | IC50 (Adenosine receptor A2a; read-out: IC50) [µM] | Ki (Adenosine receptor A2a; read-out: Ki) [µM]
1 | CC1(COc2ccc(CC3SC(=O)NC3=O)cc2)CCCCC1 (configuration not stated) [CIGLITAZONE] | Not Active | Not Active | Not Active | Not Active | Not Active |  |  |  | 
2 | NC(N)=Nc1nc(CSCCC(N)=NS(N)(=O)=O)cs1 [FAMOTIDINE] | Not Active | Not Active | Not Active | Not Active | Not Active |  |  |  | 
3 | Nc1nc(F)nc2c1ncn2[C@@H]1O[C@H](CO)[C@@H](O)[C@@H]1O [FLUDARABINE] | Not Active | Not Active | Not Active | Not Active | Not Active |  |  |  | 
4 | NC(=O)NC(=O)Cc1ccccc1 [PHENACEMIDE] | Not Active | Not Active | Not Active | Not Active | Not Active |  |  |  | 
5 | Nc1ccc(C(=O)O)c(O)c1 [AMINOSALICYLIC ACID] | Not Active | Not Active | Not Active | Not Active | Not Active |  |  |  | 
6 | O=c1[nH]cnc2c1ncn2[C@H]1CC[C@@H](CO)O1 [DIDANOSINE] | Not Active | Not Active | Not Active | Not Active | Not Active |  |  |  | 
7 | NC(=O)CN1CCCC1=O | Not Active | Not Active | Not Active | Not Active | Not Active |  |  |  | 
8 | Clc1cc(Cl)c(OCC#CI)cc1Cl [HALOPROGIN] | Not Active |  | Not Active | Not Active | Not Active | 0.459 | 1.15 |  | 
9 | O=C(NCCN1CCOCC1)c1ccc(Cl)cc1 [MOCLOBEMIDE] | Not Active | Not Active | Not Active | Not Active | Not Active |  |  |  | 
10 | Cc1c(N)nc([C@H](CC(N)=O)NC[C@H](N)C(N)=O)nc1C(=O)N[C@H](C(=O)N[C@H](C)[C@@H](O)[C@H](C)C(=O)N[C@H](C(=O)NCCc1nc(-c2nc(C(=O)NCCC[S+](C)C)cs2)cs1)[C@@H](C)O)[C@@H](O[C@@H]1O[C@@H](CO)[C@@H](O)[C@H](O)[C@@H]1O[C@H]1O[C@H](CO)[C@@H](O)[C@H](OC(N)=O)[C@@H]1O)c1c[nH]cn1.[Br-] [BLEOMYCIN A2] | Not Active | Not Active | Not Active | Not Active | Not Active |  |  |  | 
11 | CC(C)Cc1ccc([C@H](C)C(=O)O)cc1 [DEXIBUPROFEN] | Not Active | Not Active | Not Active | Not Active | Not Active |  |  |  | 
12 | COc1ccc(C[C@H](N)C(=O)N[C@H]2[C@@H](O)[C@H](n3cnc4c(N(C)C)ncnc43)O[C@@H]2CO)cc1 [PUROMYCIN] | Not Active | Not Active | Not Active | Not Active | Not Active |  |  |  | 
13 | CCC1(c2ccccc2)C(=O)NC(=O)NC1=O [PHENOBARBITAL] | Not Active | Not Active | Not Active | Not Active | Not Active |  |  |  | 
14 | O=C1c2ccccc2C(=O)C1c1ccccc1 [PHENINDIONE] | Not Active | Not Active | Not Active | Not Active | Not Active |  |  |  | 
15 | OC[C@H]1OC2C3[C@@H](CO)OC(O[C@H]4[C@H](O)[C@@H](O)[C@@H](O[C@H]5[C@H](O)[C@@H](O)[C@@H](O[C@H]6[C@H](O)[C@@H](O)[C@@H](O[C@H]7[C@H](O)[C@@H](O)[C@@H](O[C@H]8[C@H](O)[C@@H](O)[C@@H](O[C@H]9[C@H](O)[C@@H](O)C(OC1[C@H](O)[C@H]2O)O[C@@H]9CO)O[C@@H]8CO)O[C@@H]7CO)O[C@@H]6CO)O[C@@H]5CO)O[C@@H]4CO)[C@H](O)[C@H]3O | Not Active | Not Active | Not Active | Not Active | Not Active |  |  |  | 
16 | CO[C@H]1O[C@@H]2O[C@@]3(C)CC[C@H]4[C@H](C)CC[C@@H]([C@H]1C)[C@@]24OO3 | Not Active | Not Active | Not Active | Not Active | Not Active |  |  |  | 

Row | SMILES | IC50 (Glycine receptor) | IC50 ([1]; hek293) | IC50 (Caspase-1) | IC50 [2] | IC50 (Adenosine receptor A2a; hek293) | Ki [1] [µM] | IC50 ([1]; read-out: IC50) [µM] | IC50 (Adenosine receptor A2a; read-out: IC50) [µM] | Ki (Adenosine receptor A2a; read-out: Ki) [µM]
17 | CC(C)Cn1cnc2c(N)nc3ccccc3c21 [IMIQUIMOD] | Not Active | Not Active | Not Active | Not Active |  |  |  | 5.32 | 2.99
18 | COc1cc(NC(C)CCCN)c2ncccc2c1 (configuration not stated) [PRIMAQUINE] | Not Active | Not Active | Not Active | Not Active | Not Active |  |  |  | 
19 | O=C(O)COC(=O)Cc1ccccc1Nc1c(Cl)cccc1Cl [ACECLOFENAC] | Not Active | Not Active | Not Active | Not Active | Not Active |  |  |  | 
20 | C#C[C@]1(O)CC[C@H]2[C@@H]3CCC4=CC(=O)CC[C@@H]4[C@H]3CC[C@@]21C [NORETHINDRONE] | Not Active | Not Active | Not Active | Not Active | Not Active |  |  |  | 
21 | CC(C)(C#N)c1cc(Cn2cncn2)cc(C(C)(C)C#N)c1 [ANASTROZOLE] | Not Active | Not Active | Not Active | Not Active | Not Active |  |  |  | 
22 | Cc1cc(C(C)(C)C)c(O)c(C)c1CC1=NCCN1 [OXYMETAZOLINE] | Not Active | Not Active | Not Active | Not Active | Not Active |  |  |  | 
23 | O=C(Nc1ccc(Cl)c(Cl)c1)c1cc(Cl)cc(Cl)c1O [3,3',4',5-TETRACHLOROSALICYLANILIDE] | Not Active | Not Active | Not Active | Not Active | Not Active |  |  |  | 
24 | O=C(O)CO [GLYCOLIC ACID] | Not Active | Not Active | Not Active | Not Active | Not Active |  |  |  | 
25 | COC(=O)C[C@](O)(CCC(C)(C)O)C(=O)O[C@@H]1C(OC)=C[C@]23CCCN2CCc2cc4c(cc2[C@H]13)OCO4 [HARRINGTONINE] | Not Active | Not Active | Not Active | Not Active | Not Active |  |  |  | 
26 | CC(C)(c1ccc(O)cc1)c1ccc(O)cc1 [BISPHENOL A] | Not Active | Not Active | Not Active | Not Active | Not Active |  |  |  | 
27 | C[C@]12CC[C@@H](O)C[C@@H]1CC[C@@H]1[C@@H]2CC[C@]2(C)C(=O)CC[C@@H]12 [ANDROSTERONE] | Not Active | Not Active | Not Active | Not Active | Not Active |  |  |  | 
28 | COc1ccc(Cl)cc1C(=O)NCCc1ccc(S(=O)(=O)NC(=O)NC2CCCCC2)cc1 [GLYBURIDE] | Not Active | Not Active | Not Active | Not Active | Not Active |  |  |  | 
29 | CC(CN1c2ccccc2Sc2ccccc21)N(C)C (configuration not stated) [PROMETHAZINE] | Not Active | Not Active | Not Active | Not Active | Not Active |  |  |  | 
30 | C[N+](C)(C)CCOP(=O)([O-])OC[C@H](O)CO | Not Active | Not Active | Not Active | Not Active | Not Active |  |  |  | 
31 | NCC(CC(=O)O)c1ccc(Cl)cc1 (configuration not stated) [BACLOFEN] | Not Active | Not Active | Not Active | Not Active | Not Active |  |  |  | 
